Measurements: article PMC9953468, “In Silico, In Vitro, and Ex Vivo Biological Activity of Some Novel Mebeverine Precursors” (Biomedicines, 2023)
Entries after “also recorded” stand apart in the source; their conditions may differ. Where two headings read alike, the source gives them in different places.

What was measured:
Klebsiella sp. = assay: Antimicrobial activity, agar well diffusion method; type: cell-based; settings: Dose 0.6 mg/disk, dwell = 6 mm
Source text: (§1) Eighteen tested microorganisms including five Gram-positive bacteria (Bacillus subtilis ATCC 6633, Bacillus amyloliquefaciens 4BCL-YT, Staphylococcus aureus ATCC 25923, Listeria monocytogenes NBIMCC 8632, Enterococcus faecalis ATCC 19433), five Gram-negative bacteria (Salmonella enteritidis ATCC 13076, Klebsiella sp.—clinical isolate, Escherichia coli ATCC 25922, Proteus vulgaris ATCC 6380, Pseudomonas aeruginosa ATCC 9027), two yeasts (Candida albicans NBIMCC 74, Saccharomyces cerevisiae ATCC 9763) and six fungi (Aspergillus niger ATCC 1015, Aspergillus flavus, Penicillium sp., Rhizopus sp., Mucor sp.—plant isolates, Fusarium moniliforme ATCC 38932) from the collection of the Department of Microbiology at the University of Food Technologies—Plovdiv, Bulgaria, were selected for the antimicrobial activity test.
(§2) The antimicrobial activity of the samples was determined by the agar well diffusion method. The tested bacteria B. subtilis and B. amyloliquefaciens were cultured on LBG agar at 30 °C. The test bacteria S. aureus, L. monocytogenes, E. faecalis, S. enteritidis, Klebsiella sp., E. coli, P. vulgaris and P. aeruginosa were cultured on LBG agar at 37 °C for 24 h. The yeast C. albicans was cultured on MEA at 37 °C, while S. cerevisiae was cultured on MEA at 30 °C for 24 h. The fungi A. niger, A. flavus, Penicillium sp., Rhizopus sp., Mucor sp., and F. moniliforme were grown on MEA at 30 °C for 7 days or until sporulation.
(§3) The inocula of the tested bacteria/yeasts were prepared by homogenization of a small amount of biomass in 5 mL of sterile 0.5% NaCl. The inocula of tested fungi were prepared by the addition of 5 mL of sterile 0.5% NaCl into the tubes. After stirring by vortex V-1 plus (Biosan), they were filtered and replaced in other tubes before use. The number of viable cells and fungal spores was determined using a bacterial counting chamber Thoma (Poly-Optik, GmbH, Bad Blankenburg, Germany). Their final concentrations were adjusted to 10^8 cfu/mL for bacterial/yeast cells and 10^5 cfu/mL for fungal spores and then inoculated in preliminarily melted and tempered at 45–48 °C LBG/MEA agar media. Next, the inoculated media were transferred in a quantity of 18 mL in sterile Petri plates (d = 90 mm) (Gosselin™, Hazebrouck, France) and allowed to harden. Then, six wells (d = 6 mm) per plate were cut, and triplicates of 60 μL of each extract were pipetted into the agar wells. The Petri plates were incubated in identical conditions.
(§4) The antimicrobial activity was determined by measuring the diameter of the inhibition zones around the wells on the 24th and 48th h of incubation. […]

[1] = tested on: Pseudomonas aeruginosa ATCC 9027; assay: Antimicrobial activity, agar well diffusion method; type: cell-based; settings: Dose 0.6 mg/disk, dwell = 6 mm
Source text: as §1, §2, §3, §4

MTT cell viability assay [2] = type: cell-based, human; settings: human, ± SD, read-out: In vitro cytotoxicity (IC50)
Method: (§5) In order to evaluate the in vitro biocompatibility of the experimental compounds, a series of cell viability assays were performed against human malignant leukemic cell lines (LAMA-84, K-562) as well as normal murine fibroblast cells (CCL-1). All cell lines were purchased from the German Collection of Microorganisms and Cell Cultures (DSMZ GmbH, Braunschweig, Germany). Cell cultures were cultivated in a growth medium RPMI 1640 supplemented with 10% fetal bovine serum (FBS), 5% L-glutamine, and incubated under standard conditions of 37 °C and 5% humidified CO2 atmosphere.
(§6) The experimental design involved a number of cytotoxicity assays that measured cell growth inhibition by the newly synthesized compounds. Cell viability was evaluated using a standard MTT-based colorimetric assay. Exponential-phased cells were harvested and seeded (100 μL/well) in 96-well plates at the appropriate density (3 × 10^5) for the suspension cultures (LAMA-84 and K-562) and 1.5 × 10^5 for the adherent one (CCL-1). Cells were treated and incubated with various concentrations of the experimental compounds in the concentration range of 400-6.25 µM. After exposure time of 72 h, a filter-sterilized MTT substrate solution (5 mg/mL in PBS) was added to each well of the culture plate. A further 1–4 h incubation allowed for the formation of purple insoluble formazan precipitates. The latter were dissolved in isopropyl alcohol solution containing 5% formic acid prior to absorbance measurement at 550 nm using a microplate reader (Labexim LMR-1). Collected absorbance values were blanked against MTT and isopropanol solution and normalized to the mean value of the untreated control (100% cell viability). Semi-logarithmic “dose–response” curves were constructed and the half-inhibitory concentrations of the screened compounds against each tested cell line were calculated. Values of p ≤ 0.05 were considered statistically significant.

MTT cell viability assay [3] = type: cell-based; settings: mouse, CCL-1, normal murine fibroblast cells, read-out: In vitro cytotoxicity (IC50)
Method: as §5, §6

5-HT3 receptor = assay: Immunohistochemical analysis of 5-HT3 expression in gastric SM strips; set-up: species or system Wistar rats; key to 5-HT3 expression, 5-HT / 5-HT3 expression, Response to Compound: −: absent; +: low; ++: moderate; +++: strong; settings: for 5-HT3 expression, Response to Compound: SM preparations incubated with the compound; for 5-HT3 expression in SM preparations: immunohistochemical staining after 1 h incubation, in words
Method: […] Then, each SM strip was fixed in 10% neutral buffer formalin for 24–48 h and submitted for standard processing with hematoxylin and eosin staining.
The SM fragments from a rat’s gastric wall were fixed in a 10% neutral formalin solution and embedded in paraffin. Paraffin sections of 5 μm thickness were subjected to hematoxylin and eosin (H-E) staining for histochemical analysis.
Sections of the SM fragments from the wall of a rat’s stomach with a thickness of 5 µm were deparaffinized, then subjected to antigenic detection of the epitopes with citrate buffer, and an endogenous peroxidase blockade was made with hydrogen […] 3%, a kit was used to block the endogenous biotin, and a reagent was used to block non-specific binding (Superblock, Scy Tek, Santa Cruz Biotech. Inc. Heidelberg, Germany) follows incubate for 24 h (at 4 °C) with monoclonal mouse anti-5-HT3, next incubated with a secondary antibody: biotinylated anti-rabbit for 10 min at room temperature. The reaction was visualized with 3,3′-diaminobenzidine tetrachloride and counterstained with Mayer’s hematoxylin.
A quantitative and statistical analysis of immunohistochemical reaction using the Olympus DP-Soft image system (version 4.1 for Windows) was carried out on a Microphot-SA (Nikon, Japan) microscope equipped with a Camedia-5050 Z digital camera (Olympus, Japan). The analysis was performed on sections from the SM strips from the stomach of Wistar rats (n = 6 for each group). Five sections of the SM strips were measured, and the percentage of cells expressing 5-HT3 in the circular and longitudinal layer of SM cells, as well as in the myenteric plexus of the stomach, was determined. Each antibody was analyzed for five fields, in each of them the average number of cells with positive unit area response at ×200 magnification.

[4] = tested on: Escherichia coli ATCC 25922; assay: Antimicrobial activity, agar well diffusion method; type: cell-based; settings: Dose 0.6 mg/disk, dwell = 6 mm
Source text: as §1, §2, §3, §4

[5] = LAMA-84, CML in blast crisis (bcr-abl+)

Compound	Inhibition Zones (Klebsiella sp.) [mm]	Inhibition Zones [1] [mm]	IC50 at 72 h (MTT cell viability assay [2]; K-562, Blast phase CML (bcr-abl+)) [µM]	IC50 at 72 h (MTT cell viability assay [2]; [5]) [µM]	IC50 at 72 h (MTT cell viability assay [3]) [µM]	5-HT3 expression, Response to Compound (5-HT3 receptor)	5-HT3 expression in SM preparations (5-HT3 receptor)	Inhibition Zones [4] [mm]	IC50 at 72 h (MTT cell viability assay [2]; K-562 cells (blast phase chronic myeloid leukemia), K-562, Blast phase CML (bcr-abl+)) [µM]	IC50 at 72 h (MTT cell viability assay [3]; CCL-1 normal fibroblast cells) [µM]
CC(C)C(N)Cc1ccccc1 (stereo not shown) [Compound 3, 3-Methyl-1-phenylbutan-2-amine]	8	9	250 ± 10.5	239 ± 18.2	> 300	+++	higher number of 5-HT3R positive cells per section; also recorded: increased intensity in 5-HT3 expression			
CC(=O)NC(Cc1ccccc1)C(C)C (stereo not shown) [Compound 4a, N-(3-methyl-1-phenylbutan-2-yl)acetamide]				360 ± 11		−	no modulation on the 5-HT3R expression; also recorded: no 5-HT3 expression observed	8	276 ± 19.7	> 300
